Here are results for seven compounds from ChEMBL document CHEMBL5360519, “Chemical similarities and differences among inhibitors of nitric oxide synthase, arginase and dimethylarginine dimethylaminohydrolase-1: Implications for the design of novel enzyme inhibitors modulating the nitric oxide pathway” (Bioorg Med Chem, 2022).

One may read the IC50 as the concentration at which inhibition is half-maximal. Low values mean inhibition by little substance, high ones a need for much substance. A word on the Ki: it is a dissociation constant, usually derived from enzyme kinetics or from competition with a known ligand.

In test [1] the target is T1, N(G),N(G)-dimethylarginine dimethylaminohydrolase 1 (Homo sapiens, UniProt O94760). Nature of the test: Inhibition of human DDAH1 expressed using SMTC as substrate measured after 5 mins.
T1 sequence (O94760 whole entry): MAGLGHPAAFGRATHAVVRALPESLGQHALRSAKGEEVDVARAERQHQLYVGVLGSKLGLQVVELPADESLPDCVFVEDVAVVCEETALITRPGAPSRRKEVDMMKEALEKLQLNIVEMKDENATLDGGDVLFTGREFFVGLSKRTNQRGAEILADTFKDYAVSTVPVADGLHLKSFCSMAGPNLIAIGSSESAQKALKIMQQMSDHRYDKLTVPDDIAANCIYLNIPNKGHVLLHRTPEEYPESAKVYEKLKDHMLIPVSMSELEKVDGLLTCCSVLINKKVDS
Test [2] deals with T1, N(G),N(G)-dimethylarginine dimethylaminohydrolase 1. Nature of the test: Inhibition of human DDAH1 assessed as inhibition constant.
Test [3] has the same target. Nature of the test: Inhibition of human DDAH1.
The target is the same in test [4]. The test is described as follows: Inhibition of human DDAH1 using SMTC as substrate by fluorimetric assay.
Test [5] has the same target. Nature of the test: Inhibition of human DDAH1 expressed using SMTC as substrate assessed as inhibition constant measured after 5 mins.
Another test deals with Nitric oxide synthase 1 (Homo sapiens, UniProt P29475). Nature of the test: Inhibition of human nNOS assessed as inhibition constant measured after 5 mins.
Nitric oxide synthase 1, sequence (P29475 whole entry): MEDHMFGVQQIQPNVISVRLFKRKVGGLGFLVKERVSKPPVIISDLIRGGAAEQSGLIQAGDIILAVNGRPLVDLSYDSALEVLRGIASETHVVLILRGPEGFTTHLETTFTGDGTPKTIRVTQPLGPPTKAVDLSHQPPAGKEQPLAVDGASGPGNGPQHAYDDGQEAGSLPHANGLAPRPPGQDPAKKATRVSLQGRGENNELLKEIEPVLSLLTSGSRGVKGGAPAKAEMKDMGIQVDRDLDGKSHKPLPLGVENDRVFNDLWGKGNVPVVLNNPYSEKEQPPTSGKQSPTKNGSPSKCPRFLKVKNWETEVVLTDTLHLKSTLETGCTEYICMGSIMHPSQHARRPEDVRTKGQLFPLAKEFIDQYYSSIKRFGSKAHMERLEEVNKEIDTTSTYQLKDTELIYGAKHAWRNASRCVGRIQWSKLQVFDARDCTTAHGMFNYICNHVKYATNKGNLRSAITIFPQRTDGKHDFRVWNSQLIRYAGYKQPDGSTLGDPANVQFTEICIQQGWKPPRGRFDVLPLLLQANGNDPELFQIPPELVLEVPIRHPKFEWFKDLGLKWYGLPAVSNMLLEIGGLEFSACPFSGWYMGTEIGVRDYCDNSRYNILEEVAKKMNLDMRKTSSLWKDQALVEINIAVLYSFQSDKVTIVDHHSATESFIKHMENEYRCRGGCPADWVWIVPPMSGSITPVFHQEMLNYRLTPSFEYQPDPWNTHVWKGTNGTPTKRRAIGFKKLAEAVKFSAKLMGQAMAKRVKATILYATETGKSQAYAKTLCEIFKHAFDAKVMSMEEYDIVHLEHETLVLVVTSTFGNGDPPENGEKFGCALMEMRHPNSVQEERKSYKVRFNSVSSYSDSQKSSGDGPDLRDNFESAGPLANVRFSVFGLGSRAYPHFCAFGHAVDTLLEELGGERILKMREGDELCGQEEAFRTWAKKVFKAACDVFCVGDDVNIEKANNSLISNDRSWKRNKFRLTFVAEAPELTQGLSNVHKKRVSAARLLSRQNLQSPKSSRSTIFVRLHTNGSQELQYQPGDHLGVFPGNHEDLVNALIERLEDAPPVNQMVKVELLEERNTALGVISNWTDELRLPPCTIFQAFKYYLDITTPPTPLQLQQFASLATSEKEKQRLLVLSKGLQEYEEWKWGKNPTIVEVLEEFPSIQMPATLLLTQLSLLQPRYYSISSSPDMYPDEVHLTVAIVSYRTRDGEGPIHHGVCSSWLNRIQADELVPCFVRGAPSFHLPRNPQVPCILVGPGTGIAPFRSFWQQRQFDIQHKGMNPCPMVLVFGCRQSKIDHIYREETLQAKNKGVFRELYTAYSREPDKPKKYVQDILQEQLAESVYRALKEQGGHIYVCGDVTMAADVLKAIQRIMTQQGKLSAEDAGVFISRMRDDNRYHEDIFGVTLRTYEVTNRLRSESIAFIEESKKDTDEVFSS
Test [6] is described as follows: Upregulation of DDAH1 (unknown origin) transfected in HEK293T cells by Western blot analysis relative to control. The format is functional, Homo sapiens, HEK-293T. Background: A western blot detects proteins with antibodies after separation by electrophoresis.
Test [7] is filed under the species Homo sapiens. Nature of the test: Selectivity index, ratio of Ki for Inhibition of N-terminal His6-tagged human DDAH1 transfected in HEK293T cells to Ki for human eNOS. The format is cell-based.
The species entered for test [8] is Homo sapiens. The test is described as follows: Selectivity index, ratio of Ki for Inhibition of N-terminal His6-tagged human DDAH1 transfected in HEK293T cells to Ki for human arginase. The format is cell-based.
In test [9] the target is T1, N(G),N(G)-dimethylarginine dimethylaminohydrolase 1. The test is described as follows: Inhibition of N-terminal His6-tagged human DDAH1 expressed in Escherichia coli measured after 18 hrs.
For test [10] the target is unchanged. Nature of the test: Inhibition of His-tagged human DDAH1 using SMTC as substrate assessed as inhibition constant.

SMILES strings stand for the structures. Bounds are passed on as bounds.

Consider `CCCCCC(=N)NCCC[C@H](N)C(=O)O`, for which the concentration for half-maximal inhibition (IC50) in [1] was > 1900 µM. Turning to `Cc1cc(Br)ccn1`, the inhibitory constant (Ki) in test [2] stood at 2600 µM. Regarding `C#CCCNC(=N)CCl`, in [3], it took 350 µM to reach half-maximal inhibition (IC50).

`N=C1Sc2ccccc2C2=NCCCN12`: the IC50 in [4] worked out at 9 µM. Moreover, the results for the Ki (in [5]; on Nitric oxide synthase 1) were 110 µM and > 1900 µM, respectively. `N=C(CCl)NCCC[C@H](N)C(=O)O`: the Ki in test [5] was determined as 110 µM. The compound further gave an Activity in test [6] of 80%. The Ratio Ki in the test listed under Homo sapiens [7] and in the test listed under Homo sapiens [8] was > 500 each time. `CCCCCC(O)/C=C/C=O` (configuration not stated) [4-HYDROXYNON-2-ENAL] registered a 50% inhibitory concentration (IC50) in test [9] of 50 µM.

For `CC(C)(C)c1cc(C(F)(F)F)c2c(N)c(C(=O)Nc3nccs3)sc2n1`, the inhibition constant (Ki) in [10] is 9 µM.
